In patent US8524702B2, “Substituted benzoazepines as toll-like receptor modulators” (VentiRx Pharmaceuticals, Inc., priority 2009, dated 2013):
Structures can show the parent of a compound that is named as a salt.

Legend:
TLR8 = biological target: T1, TLR8 (Homo sapiens, UniProt Q9NR97); assay: PBMC assay for TLR8 (TNFα in supernatants by ELISA); type: cell-based; set-up: Peripheral blood mononuclear cells (PBMCs) from human blood were isolated; endogenous in cells; host or cells: human PBMCs; conditions: human PBMCs incubated with compound overnight, MC50 = concentration at which 50% of the maximum induction is seen
T1 sequence (Q9NR97 27-1041): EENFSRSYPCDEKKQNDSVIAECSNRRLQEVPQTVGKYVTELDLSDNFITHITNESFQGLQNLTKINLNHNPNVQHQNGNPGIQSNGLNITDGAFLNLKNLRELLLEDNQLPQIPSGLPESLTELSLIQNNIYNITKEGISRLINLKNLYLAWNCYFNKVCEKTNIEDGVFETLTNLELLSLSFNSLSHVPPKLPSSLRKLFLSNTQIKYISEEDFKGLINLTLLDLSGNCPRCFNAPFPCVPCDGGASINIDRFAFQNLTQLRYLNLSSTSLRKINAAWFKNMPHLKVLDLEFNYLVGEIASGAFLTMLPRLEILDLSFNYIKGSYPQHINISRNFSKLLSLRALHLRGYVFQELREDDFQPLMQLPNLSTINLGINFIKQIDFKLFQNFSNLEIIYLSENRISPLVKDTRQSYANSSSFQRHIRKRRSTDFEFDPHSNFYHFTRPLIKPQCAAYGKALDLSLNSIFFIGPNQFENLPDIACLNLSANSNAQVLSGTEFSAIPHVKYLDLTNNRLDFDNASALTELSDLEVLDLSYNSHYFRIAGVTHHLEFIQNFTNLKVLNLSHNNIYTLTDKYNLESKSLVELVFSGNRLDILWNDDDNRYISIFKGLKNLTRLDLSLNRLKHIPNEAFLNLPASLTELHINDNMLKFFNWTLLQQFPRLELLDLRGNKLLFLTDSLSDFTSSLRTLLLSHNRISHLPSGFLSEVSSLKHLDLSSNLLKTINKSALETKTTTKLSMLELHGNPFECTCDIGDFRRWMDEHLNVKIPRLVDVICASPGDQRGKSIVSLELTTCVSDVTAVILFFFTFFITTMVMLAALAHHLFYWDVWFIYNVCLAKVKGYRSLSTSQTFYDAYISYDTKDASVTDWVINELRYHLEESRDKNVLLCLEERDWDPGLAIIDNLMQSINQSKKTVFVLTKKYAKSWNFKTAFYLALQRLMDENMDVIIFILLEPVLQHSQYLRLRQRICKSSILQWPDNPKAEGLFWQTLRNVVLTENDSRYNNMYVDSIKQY
Experimental: (§1) Peripheral blood mononuclear cells (PBMCs) from human blood were isolated using BD Vacutainer Cell Preparation Tubes with sodium citrate. Cells were incubated with compound overnight. TLR8 activity was assayed by measuring the amount of TNFα in supernatants by ELISA. TLR7 activity was assayed by measuring the amount of IFNα in supernatants by ELISA (R&D Systems). […] The results of this assay are shown below in Tables 2 and 3.
(§2) MC50 numbers are represented as factors of ten, for example, + indicates an MC50 value of ×10^4, or a value in the tens of thousands of nanomolar (nM range); ++ indicates an MC50 value of ×10^3, or a value in the thousands; +++ indicates an MC50 value of ×10^2, or a value in the hundreds; and ++++ indicates an MC50 value of ×10^1 or 10°, or a value in the tens or ones.

TLR7 = biological target: T2, TLR7 (Homo sapiens, UniProt Q9NYK1); assay: PBMC assay for TLR7 (IFNα in supernatants by ELISA); type: cell-based; set-up: Peripheral blood mononuclear cells (PBMCs) from human blood were isolated; endogenous in cells; host or cells: human PBMCs; conditions: human PBMCs incubated with compound overnight, MC50 = concentration at which 50% of the maximum induction is seen
T2 sequence (Q9NYK1 27-1049): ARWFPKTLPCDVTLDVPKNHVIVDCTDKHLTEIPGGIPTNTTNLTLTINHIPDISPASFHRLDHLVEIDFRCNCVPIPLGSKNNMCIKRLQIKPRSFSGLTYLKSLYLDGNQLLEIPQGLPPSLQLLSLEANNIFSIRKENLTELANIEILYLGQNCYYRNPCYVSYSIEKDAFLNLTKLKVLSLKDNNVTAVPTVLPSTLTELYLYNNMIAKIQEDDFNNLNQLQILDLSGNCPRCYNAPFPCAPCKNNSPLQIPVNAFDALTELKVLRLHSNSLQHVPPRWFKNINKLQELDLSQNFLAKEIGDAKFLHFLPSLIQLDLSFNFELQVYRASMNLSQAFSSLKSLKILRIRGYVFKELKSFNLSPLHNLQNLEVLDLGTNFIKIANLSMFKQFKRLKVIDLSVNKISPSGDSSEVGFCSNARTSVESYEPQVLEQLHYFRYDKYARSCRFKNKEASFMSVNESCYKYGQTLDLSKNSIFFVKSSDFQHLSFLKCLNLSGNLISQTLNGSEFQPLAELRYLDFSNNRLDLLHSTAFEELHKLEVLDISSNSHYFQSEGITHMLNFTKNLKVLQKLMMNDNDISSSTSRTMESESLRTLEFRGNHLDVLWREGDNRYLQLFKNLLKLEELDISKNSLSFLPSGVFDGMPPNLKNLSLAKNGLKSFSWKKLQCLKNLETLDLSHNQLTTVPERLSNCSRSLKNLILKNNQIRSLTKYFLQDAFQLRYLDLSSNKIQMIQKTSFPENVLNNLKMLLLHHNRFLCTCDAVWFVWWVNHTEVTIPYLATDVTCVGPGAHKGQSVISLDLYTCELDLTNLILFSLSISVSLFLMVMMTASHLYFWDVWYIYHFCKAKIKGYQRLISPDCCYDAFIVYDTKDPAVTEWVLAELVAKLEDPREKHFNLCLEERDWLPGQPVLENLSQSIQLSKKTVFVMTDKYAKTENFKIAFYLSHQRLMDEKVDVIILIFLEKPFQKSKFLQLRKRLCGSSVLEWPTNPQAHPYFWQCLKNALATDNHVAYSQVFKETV
Experimental: as §1, §2

Structure (SMILES) | EC50 (TLR8) | EC50 (TLR7)
NC1=Nc2cc(-c3ccc(C(=O)N4CCCC4)cc3)ccc2C=C(C(=O)N2C[C@@H](O)[C@H](O)C2)C1 [Compound 112, (4-((1E,4E)-2-amino-4-((3R,4R)-3,4-dihydroxypyrrolidine-1-carbonyl)-3H-benzo[b]azepin-8-yl)phenyl)(pyrrolidin-1-yl)methanone] | 1000 to 10000 nM | 10000 to 100000 nM
CCCN(CCCO)C(=O)C1=Cc2ccc(-c3ccccc3C(=O)OCC)cc2N=C(N)C1 [Compound 204, Ethyl 2-((1E,4E)-2-amino-4-((3-hydroxypropyl)(propyl)carbamoyl)-3H-benzo[b]azepin-8-yl)benzoate] | 100 to 1000 nM | 1000 to 10000 nM
CCCN(CCC)C(=O)C1=Cc2ccc(-c3ccc(C(=O)OC)cc3)cc2N=C(N)C1 [Compound 206, Methyl 4-((1E,4E)-2-amino-4-(dipropylcarbamoyl)-3H-benzo[b]azepin-8-yl)benzoate] | 100 to 1000 nM | 1000 to 10000 nM
CCCN(Cc1ccccc1O)C(=O)C1=Cc2ccc(-c3ccc(C(=O)N4CCCC4)cc3)cc2N=C(N)C1 [Compound 174, (1E,4E)-2-amino-N-(2-hydroxybenzyl)-N-propyl-8-(4-(pyrrolidine-1-carbonyl)phenyl)-3H-benzo[b]azepine-4-carboxamide hydrochloride] | 100 to 1000 nM | 1000 to 10000 nM
CCCN(CCC)C(=O)C1=Cc2ccc(-c3cccc(O)c3)cc2N=C(N)C1 [Compound 194, (1E,4E)-2-amino-8-(3-hydroxyphenyl)-N,N-dipropyl-3H-benzo[b]azepine-4-carboxamide] | 100 to 1000 nM | 1000 to 10000 nM
CCCN(CCC)C(=O)C1=Cc2ccc(-c3ccc(C(=O)OC)nc3)cc2N=C(N)C1 [Compound 212, Methyl 5-((1E,4E)-2-amino-4-(dipropylcarbamoyl)-3H-benzo[b]azepin-8-yl)picolinate] | 100 to 1000 nM | 1000 to 10000 nM
CCCN(CCC)C(=O)C1=Cc2ccc(-c3ccc(C(=O)OCC)cc3)cc2N=C(N)C1 [Compound 139, ethyl 4-((1E,4E)-2-amino-4-(dipropylcarbamoyl)-3H-benzo[b]azepin-8-yl)benzoate] | 100 to 1000 nM | 1000 to 10000 nM
CC(C)CN(CC(C)C)C(=O)C1=Cc2ccc(-c3ccc(C(=O)N4CCCC4)cc3)cc2N=C(N)C1 [Compound 103, (1E,4E)-2-amino-N,N-diisobutyl-8-(4-(pyrrolidine-1-carbonyl)phenyl)-3H-benzo[b]azepine-4-carboxamide] | 1000 to 10000 nM | 1000 to 10000 nM
CCCN(CC(C)(C)O)C(=O)C1=Cc2ccc(-c3ccc(C(=O)N4CCCC4)cc3)cc2N=C(N)C1 [Compound 117, (1E,4E)-2-amino-N-(2-hydroxy-2-methylpropyl)-N-propyl-8-(4-(pyrrolidine-1-carbonyl)phenyl)-3H-benzo[b]azepine-4-carboxamide] | 100 to 1000 nM | 10000 to 100000 nM

Results, then the compound that gave them:

EC50 (TLR8) | EC50 (TLR7) | Structure (SMILES)
100 to 1000 nM | 1000 to 10000 nM | CCCN(CCC)C(=O)C1=Cc2ccc(-c3ccc(C(=O)OCC)c(F)c3)cc2N=C(N)C1 [Compound 210, Ethyl 4-((1E,4E)-2-amino-4-(dipropylcarbamoyl)-3H-benzo[b]azepin-8-yl)-2-fluorobenzoate]
100 to 1000 nM | 1000 to 10000 nM | CCCN(CCC)C(=O)C1=Cc2ccc(-c3ccc(C(=O)N(CC)CC)cc3)cc2N=C(N)C1 [Compound 125, (1E,4E)-2-amino-8-(4-(diethylcarbamoyl)phenyl)-N,N-dipropyl-3H-benzo[b]azepine-4-carboxamide]
1 to 100 nM | 1000 to 10000 nM | CCCN(CCC)C(=O)C1=Cc2ccc(-c3cccc(C(=O)N(C)C)c3)cc2N=C(N)C1 [Compound 138, (1E,4E)-2-amino-8-(3-(dimethylcarbamoyl)phenyl)-N,N-dipropyl-3H-benzo[b]azepine-4-carboxamide]
1 to 100 nM | 1000 to 10000 nM | CCCN(CCC)C(=O)C1=Cc2ccc(-c3cccnc3)cc2N=C(N)C1 [Compound 133, (1E,4E)-2-amino-N,N-dipropyl-8-(pyridin-3-yl)-3H-benzo[b]azepine-4-carboxamide]
1 to 100 nM | 1000 to 10000 nM | CCCN(C[C@H](C)O)C(=O)C1=Cc2ccc(-c3ccc(C(=O)N4CCCC4)cc3)cc2N=C(N)C1 (single isomer, unassigned) [Compound 105]
1 to 100 nM | 1000 to 10000 nM | CCCN(CCCO)C(=O)C1=Cc2ccc(-c3ccc(C(=O)N4CCCC4)cc3)cc2N=C(N)C1 [Compound 109, (1E,4E)-2-amino-N-(3-hydroxypropyl)-N-propyl-8-(4-(pyrrolidine-1-carbonyl)phenyl)-3H-benzo[b]azepine-4-carboxamide]
1 to 100 nM | 1000 to 10000 nM | CCOC(=O)C1=Cc2ccc(-c3cccnc3)cc2N=C(N)C1 [Compound 142, (1E,4E)-ethyl 2-amino-8-(pyridin-3-yl)-3H-benzo[b]azepine-4-carboxylate]
1 to 100 nM | 1000 to 10000 nM | CCCN(CCC)C(=O)C1=Cc2ccc(-c3ccc(C(=O)N4CC[C@H](O)C4)cc3)cc2N=C(N)C1 [Compound 128, (1E,4E)-2-amino-8-(4-((S)-3-hydroxypyrrolidine-1-carbonyl)phenyl)-N,N-dipropyl-3H-benzo[b]azepine-4-carboxamide]
1 to 100 nM | 1000 to 10000 nM | CCCN(CC(C)O)C(=O)C1=Cc2ccc(-c3ccc(C(=O)N4CCCC4)cc3)cc2N=C(N)C1 (stereo not shown) [Compound 104, (1E,4E)-2-amino-N-(2-hydroxypropyl)-N-propyl-8-(4-(pyrrolidine-1-carbonyl)phenyl)-3H-benzo[b]azepine-4-carboxamide]
1 to 100 nM | 1000 to 10000 nM | CCCN(CCC)C(=O)C1=Cc2ccc(-c3cccc(C#N)c3)cc2N=C(N)C1 [Compound 136, (1E,4E)-2-amino-8-(3-cyanophenyl)-N,N-dipropyl-3H-benzo[b]azepine-4-carboxamide]
1 to 100 nM | 10000 to 100000 nM | CCCN(CCC)C(=O)C1=Cc2ccc(-c3ccc(C#N)cc3)cc2N=C(N)C1 [Compound 137, (1E,4E)-2-amino-8-(4-cyanophenyl)-N,N-dipropyl-3H-benzo[b]azepine-4-carboxamide]
